# Tested on: 817829-284-R-J1-PDC complex spheroids, viability
# Assay: Anticancer human tumor 817829-284-R-J1-PDC patient-derived colon adenocarcinoma cell line growth inhibition [GQUAD]
# Conditions: for IC50: curve of first compound; for viability, T/C: stronger effect = lower value
# Procedure, shortened: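 Multi-cell-type spheroids of tumor cells with HUVEC and mesenchymal stem cells, treated with drug combinations. Concentrations descend in half-log steps from near clinical Cmax, or from 10 microM where Cmax is unknown; viability read-out.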
# [1] = second compound 0.0316 µM, first compound 0.0316 µM
# [2] = second compound 0.0316 µM, first compound 0.1 µM
# [3] = second compound 0.0316 µM, first compound 0.316 µM
# [4] = second compound 0.0316 µM, first compound 1 µM
# [5] = second compound 0.0316 µM, first compound 3.16 µM
# [6] = second compound 0.0316 µM, first compound 10 µM
# [7] = second compound 0.1 µM, first compound 0.0316 µM
# [8] = second compound 0.1 µM, first compound 0.1 µM
# [9] = second compound 0.1 µM, first compound 0.316 µM
# [10] = second compound 0.1 µM, first compound 1 µM
# [11] = second compound 0.1 µM, first compound 3.16 µM
# [12] = second compound 0.1 µM, first compound 10 µM
# [13] = second compound 0.316 µM, first compound 0.0316 µM
# [14] = second compound 0.316 µM, first compound 0.1 µM
# [15] = second compound 0.316 µM, first compound 0.316 µM
# [16] = second compound 0.316 µM, first compound 1 µM
# [17] = second compound 0.316 µM, first compound 3.16 µM
# [18] = second compound 0.316 µM, first compound 10 µM
# [19] = second compound 1 µM, first compound 0.0316 µM
# [20] = second compound 1 µM, first compound 0.1 µM
# [21] = second compound 1 µM, first compound 0.316 µM
# [22] = second compound 1 µM, first compound 1 µM
# [23] = second compound 1 µM, first compound 3.16 µM
# [24] = second compound 1 µM, first compound 10 µM
# [25] = second compound 3.16 µM, first compound 0.0316 µM
# [26] = second compound 3.16 µM, first compound 0.1 µM
# [27] = second compound 3.16 µM, first compound 0.316 µM
# [28] = second compound 3.16 µM, first compound 1 µM
# [29] = second compound 3.16 µM, first compound 3.16 µM
# [30] = second compound 3.16 µM, first compound 10 µM
# [31] = second compound 10 µM, first compound 0.0316 µM
# [32] = second compound 10 µM, first compound 0.1 µM
# [33] = second compound 10 µM, first compound 0.316 µM
# [34] = second compound 10 µM, first compound 1 µM
# [35] = second compound 10 µM, first compound 3.16 µM
# [36] = second compound 10 µM, first compound 10 µM
# 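Further: spheroids exposed to agents for 7 days before readout.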
# 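Wherever viability, T/C is given: percent viability relative to DMSO vehicle control taken as 100%.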
smiles,measurement,setting,value
C#Cc1c(F)ccc2cc(O)cc(-c3ncc4c(N5CC6CCC(C5)N6)nc(OCC56CCCN5CC(F)C6)nc4c3F)c12 (stereo unspecified) + Cc1cnc(CNC(=O)c2c(=O)c3ccc(N4CCCN(C)CC4)nc3n3c2sc2ccccc23)cn1,IC50,second compound 0.0316 µM,> 10000 nM
same,IC50,second compound 0.1 µM,< 31.6 nM
same,IC50,second compound 0.316 µM,< 31.6 nM
same,IC50,second compound 1 µM,< 31.6 nM
same,IC50,second compound 3.16 µM,< 31.6 nM
same,IC50,second compound 10 µM,< 31.6 nM
same,"viability, T/C",[1],82.9%
same,"viability, T/C",[2],72.5%
same,"viability, T/C",[3],84.7%
same,"viability, T/C",[4],61%
same,"viability, T/C",[5],91.2%
same,"viability, T/C",[6],89.8%
same,"viability, T/C",[7],30.7%
same,"viability, T/C",[8],35.5%
same,"viability, T/C",[9],32.8%
same,"viability, T/C",[10],36.2%
same,"viability, T/C",[11],33.9%
same,"viability, T/C",[12],35.9%
same,"viability, T/C",[13],22.9%
same,"viability, T/C",[14],28.6%
same,"viability, T/C",[15],24.8%
same,"viability, T/C",[16],24.1%
same,"viability, T/C",[17],29.4%
same,"viability, T/C",[18],27%
same,"viability, T/C",[19],17.9%
same,"viability, T/C",[20],23.4%
same,"viability, T/C",[21],20.6%
same,"viability, T/C",[22],21.8%
same,"viability, T/C",[23],23%
same,"viability, T/C",[24],19.8%
same,"viability, T/C",[25],17%
same,"viability, T/C",[26],20.1%
same,"viability, T/C",[27],18.8%
same,"viability, T/C",[28],17.3%
same,"viability, T/C",[29],22.7%
same,"viability, T/C",[30],20.5%
same,"viability, T/C",[31],0.13%
same,"viability, T/C",[32],0.18%
same,"viability, T/C",[33],0.19%
same,"viability, T/C",[34],0.15%
same,"viability, T/C",[35],0.18%
same,"viability, T/C",[36],0.16%
CC(=O)O[C@H]1C(=O)[C@@]2(C)[C@H]([C@H](OC(=O)c3ccccc3)[C@]3(O)C[C@H](OC(=O)[C@H](O)[C@@H](NC(=O)c4ccccc4)c4ccccc4)C(C)=C1C3(C)C)[C@]1(OC(C)=O)CO[C@@H]1C[C@@H]2O + Cc1cnc(CNC(=O)c2c(=O)c3ccc(N4CCCN(C)CC4)nc3n3c2sc2ccccc23)cn1,IC50,second compound 0.0316 µM,< 31.6 nM
same,IC50,second compound 0.1 µM,< 31.6 nM
same,IC50,second compound 0.316 µM,< 31.6 nM
same,IC50,second compound 1 µM,< 31.6 nM
same,IC50,second compound 3.16 µM,< 31.6 nM
same,IC50,second compound 10 µM,< 31.6 nM
same,"viability, T/C",[1],13.8%
same,"viability, T/C",[2],7.95%
same,"viability, T/C",[3],6.83%
same,"viability, T/C",[4],5.58%
same,"viability, T/C",[5],6.63%
same,"viability, T/C",[6],7.13%
same,"viability, T/C",[7],16.6%
same,"viability, T/C",[8],15.9%
same,"viability, T/C",[9],13.2%
same,"viability, T/C",[10],13.6%
same,"viability, T/C",[11],14.1%
same,"viability, T/C",[12],14.8%
same,"viability, T/C",[13],17.9%
same,"viability, T/C",[14],20.6%
same,"viability, T/C",[15],19.2%
same,"viability, T/C",[16],19.6%
same,"viability, T/C",[17],16%
same,"viability, T/C",[18],20.2%
same,"viability, T/C",[19],15.3%
same,"viability, T/C",[20],20.4%
same,"viability, T/C",[21],17.4%
same,"viability, T/C",[22],17%
same,"viability, T/C",[23],17.5%
same,"viability, T/C",[24],16.5%
same,"viability, T/C",[25],17.3%
same,"viability, T/C",[26],16.9%
same,"viability, T/C",[27],14.7%
same,"viability, T/C",[28],14.4%
same,"viability, T/C",[29],12.7%
same,"viability, T/C",[30],13.1%
same,"viability, T/C",[31],0.11%
same,"viability, T/C",[32],0.16%
same,"viability, T/C",[33],0.15%
same,"viability, T/C",[34],0.14%
same,"viability, T/C",[35],0.15%
same,"viability, T/C",[36],0.15%
CC[C@@]1(O)C(=O)OCc2c1cc1n(c2=O)Cc2cc3c(CN(C)C)c(O)ccc3nc2-1 + Cc1cnc(CNC(=O)c2c(=O)c3ccc(N4CCCN(C)CC4)nc3n3c2sc2ccccc23)cn1,IC50,second compound 0.0316 µM,9.66 nM
same,IC50,second compound 0.1 µM,< 0.999 nM
same,IC50,second compound 0.316 µM,< 0.999 nM
same,IC50,second compound 1 µM,< 0.999 nM
same,IC50,second compound 3.16 µM,< 0.999 nM
same,IC50,second compound 10 µM,< 0.999 nM
same,"viability, T/C","second compound 0.0316 µM, first compound 0.000999 µM",78.1%
same,"viability, T/C","second compound 0.0316 µM, first compound 0.00316 µM",61%
same,"viability, T/C","second compound 0.0316 µM, first compound 0.00999 µM",54.5%
same,"viability, T/C",[1],33.9%
same,"viability, T/C","second compound 0.0316 µM, first compound 0.0999 µM",33.8%
same,"viability, T/C",[3],28.5%
same,"viability, T/C","second compound 0.1 µM, first compound 0.000999 µM",29.2%
same,"viability, T/C","second compound 0.1 µM, first compound 0.00316 µM",37.9%
same,"viability, T/C","second compound 0.1 µM, first compound 0.00999 µM",32.2%
same,"viability, T/C",[7],31%
same,"viability, T/C","second compound 0.1 µM, first compound 0.0999 µM",28%
same,"viability, T/C",[9],23.1%
same,"viability, T/C","second compound 0.316 µM, first compound 0.000999 µM",24.8%
same,"viability, T/C","second compound 0.316 µM, first compound 0.00316 µM",26.8%
same,"viability, T/C","second compound 0.316 µM, first compound 0.00999 µM",26.9%
same,"viability, T/C",[13],25%
same,"viability, T/C","second compound 0.316 µM, first compound 0.0999 µM",26%
same,"viability, T/C",[15],20.5%
same,"viability, T/C","second compound 1 µM, first compound 0.000999 µM",20.3%
same,"viability, T/C","second compound 1 µM, first compound 0.00316 µM",24.9%
same,"viability, T/C","second compound 1 µM, first compound 0.00999 µM",24.4%
same,"viability, T/C",[19],22.9%
same,"viability, T/C","second compound 1 µM, first compound 0.0999 µM",23.8%
same,"viability, T/C",[21],22.6%
same,"viability, T/C","second compound 3.16 µM, first compound 0.000999 µM",22.5%
same,"viability, T/C","second compound 3.16 µM, first compound 0.00316 µM",21.7%
same,"viability, T/C","second compound 3.16 µM, first compound 0.00999 µM",20.3%
same,"viability, T/C",[25],19.2%
same,"viability, T/C","second compound 3.16 µM, first compound 0.0999 µM",20%
same,"viability, T/C",[27],16.1%
same,"viability, T/C","second compound 10 µM, first compound 0.000999 µM",0.08%
same,"viability, T/C","second compound 10 µM, first compound 0.00316 µM",0.14%
same,"viability, T/C","second compound 10 µM, first compound 0.00999 µM",0.19%
same,"viability, T/C",[31],0.16%
same,"viability, T/C","second compound 10 µM, first compound 0.0999 µM",0.22%
same,"viability, T/C",[33],0.17%
